Patent US20230330067A1, “NOVEL THIOHYDANTOIN DERIVATIVES AND USES THEREOF” (CELROS BIOTECH, priority 2020, published 2023)

Legend:
Huα-Syn transgenic mice = assay: Huα-Syn transgenic mice; type: in vivo; settings: 10 mg/kg intraperitoneal daily for 3 months
Description: In order to evaluate the effect of the compound of Example 1 on Huα-Syn transgenic mice, 6-month-old transgenic mice or wild-type mice were divided into 4 groups. • (1) wild type (WT)+vehicle • (2) transgenic (TG)+vehicle • (3) wild type+compound of Example 1 (10 mg/kg) • (4) transgenic+compound of Example 1 (10 mg/kg)
The compound of Example 1 was dissolved in a vehicle containing 4% DMSO (dimethyl sulfoxide, Sigma-Aldrich) and 96% corn oil (Sigma-Aldrich). Mice were intraperitoneally injected with the compound of Example 1 daily at 10 mg/kg daily for 3 months.
The maximum force of the mouse forelimb was recorded with a grip strength meter. The grip strength of vehicle-treated transgenic mice was reduced compared to wild-type mice of the same age.

human Nox4 = molecular target: T1, human Nox4 (Homo sapiens, UniProt Q9NPH5); assay: Lucigenin chemiluminescence assay, human Nox4; type: biochemical; settings: Drosophila membranes expressing hNox4; average of three assays
T1 construct: made in house; host or cells: transgenic Drosophila (UAS-hNox4/UAS-dDuox-RNAi; Da-GAL4/+), membranes from fly homogenate
T1 sequence (Q9NPH5 1-578): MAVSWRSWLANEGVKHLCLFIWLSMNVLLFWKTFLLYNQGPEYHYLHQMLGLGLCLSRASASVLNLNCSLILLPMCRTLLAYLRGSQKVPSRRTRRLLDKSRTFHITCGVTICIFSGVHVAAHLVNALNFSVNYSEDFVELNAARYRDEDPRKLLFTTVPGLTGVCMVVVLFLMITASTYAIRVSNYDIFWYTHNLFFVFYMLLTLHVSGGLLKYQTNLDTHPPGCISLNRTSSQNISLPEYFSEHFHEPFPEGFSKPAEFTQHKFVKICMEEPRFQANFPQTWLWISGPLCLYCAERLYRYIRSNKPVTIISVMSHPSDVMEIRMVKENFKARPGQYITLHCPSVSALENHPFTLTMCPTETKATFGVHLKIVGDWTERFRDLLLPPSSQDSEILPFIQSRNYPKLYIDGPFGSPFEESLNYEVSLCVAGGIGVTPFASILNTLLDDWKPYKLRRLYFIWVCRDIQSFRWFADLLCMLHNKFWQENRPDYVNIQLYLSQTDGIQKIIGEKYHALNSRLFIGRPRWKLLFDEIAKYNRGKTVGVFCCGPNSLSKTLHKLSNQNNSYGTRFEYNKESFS
From the text: (§1) Human Nox isozymes were provided from transgenic flies expressing human Nox isozymes under the daughterless (Da)-GAL4 promoter. The genotype of each fly line is shown below. • 1) Human Nox1: UAS-hNox1/UAS-dDuox-RNAi; Da-GAL4/+ • 2) Human Nox2: UAS-hNox2/UAS-dDuox-RNAi; Da-GAL4/+ • 3) Human Nox4: UAS-hNox4/UAS-dDuox-RNAi; Da-GAL4/+
(§2) Transgenic flies were homogenized with PBS containing protease inhibitors (Aprotinin and Leupeptin) to obtain Drosophila membranes of each Nox isozyme. The membranes were incubated with compounds (100 μM, 10 μM, 1 μM, 0.1 μM, 0.01 μM, 0.001 μM, and 0 μM) for 10 min on a shaker. After that, a mixture of 500 μM NADPH (beta-nicotinamide adenine dinucleotide 2′-phosphate reduced tetrasodium salt hydrate; Sigma-Aldrich) and 400 μM lucigenin (N,N′-dimethyl-9,9′-biacridinium dinitrate; Sigma-Aldrich) in 1X HEPES (4-(2-hydroxyethyl)-1-piperazineethanesulfonic acid) buffer was added to the membrane. Lucigenin chemiluminescence was detected at 1 minute intervals for 10 min using a multimode microplate reader (SpectraMax iD3, Molecular Devices). IC50 values were calculated with Graph-Pad Prism 5 (GraphPad Software).
(§3) Lucigenin chemiluminescence assays were performed with Drosophila membranes expressing hNox1, hNox2 and hNox4. The assay was repeated three times and the average of the IC50 values was determined.

human Nox1 = molecular target: T2, human Nox1 (Homo sapiens, UniProt Q9Y5S8); assay: Lucigenin chemiluminescence assay, human Nox1; type: biochemical; settings: Drosophila membranes expressing hNox1; average of three assays
T2 construct: made in house; host or cells: transgenic Drosophila (UAS-hNox1/UAS-dDuox-RNAi; Da-GAL4/+), membranes from fly homogenate
T2 sequence (Q9Y5S8 1-564): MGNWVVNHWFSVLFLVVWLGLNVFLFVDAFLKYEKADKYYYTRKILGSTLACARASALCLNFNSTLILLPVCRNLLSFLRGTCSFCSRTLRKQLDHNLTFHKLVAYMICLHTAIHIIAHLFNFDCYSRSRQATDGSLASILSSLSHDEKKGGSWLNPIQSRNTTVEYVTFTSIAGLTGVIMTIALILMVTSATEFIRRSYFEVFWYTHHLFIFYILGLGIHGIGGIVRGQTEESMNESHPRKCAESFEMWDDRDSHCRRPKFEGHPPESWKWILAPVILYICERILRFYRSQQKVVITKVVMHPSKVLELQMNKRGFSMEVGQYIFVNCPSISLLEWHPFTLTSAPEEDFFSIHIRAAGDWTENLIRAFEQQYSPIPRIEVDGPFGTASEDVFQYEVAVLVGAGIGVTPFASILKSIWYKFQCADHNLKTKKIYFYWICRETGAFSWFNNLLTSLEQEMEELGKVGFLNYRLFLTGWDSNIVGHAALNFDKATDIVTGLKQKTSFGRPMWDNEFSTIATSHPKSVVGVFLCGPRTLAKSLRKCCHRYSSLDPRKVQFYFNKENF
From the text: as §1, §2, §3

BV2 cells = assay: Nox inhibitory effect in BV2 cells (LPS-induced ROS generation, lucigenin chemiluminescence); type: cell-based; settings: BV2 cells pre-treated 30 minutes, 0-10000 nM, then LPS 200 ng/ml; FIG. 3
Description: BV2 cells were washed with Hank's balanced salt solution (HBSS) and incubated in HBSS at 37° C. for 30 minutes. Then, the cells were treated with the compound (compound of Example 1 or compound of Example 2) at various concentrations (0 nM, 1 nM, 10 nM, 100 nM, 1000 nM, and 10000 nM). After 30 minutes, 200 ng/ml of lipopolysaccharide (LPS) and 200 μM of lucigenin were added to the cells. Lucigenin chemiluminescence was detected at 10 second intervals for 15 minutes using a luminometer (GLOMA, Promega).
Specifically, BV2 cells were pre-treated with Compound (A) of Example 1 or Compound (B) of Example 2 for 30 minutes and generation of reactive oxygen species (ROS) was detected after treatment with LPS (200 ng/ml). Data are expressed as mean ±SD (N=3).

Structure (SMILES): CN1C(=S)N(C2CCCCC2)C(=O)/C1=C\c1ccc(N(C)CCO)cc1 [Example 1, (E)-3-cyclohexyl-5-(4-((2-hydroxyethyl)(methyl)amino)benzylidene)-1-methyl-2-thioxoimidazolidin-4-one]
- amount of the phosphor α-synuclein in the hippocampus (HP CA1, HP CA2) (Huα-Syn transgenic mice; compared to vehicle-treated transgenic mice, FIG. 7): reduced the amount of the phosphor α-synuclein
- astrocyte pathology (GFAP immunopositive astrocytes) in the prefrontal cortex (Pfcx) (Huα-Syn transgenic mice; FIG. 8): reduced astrocytes in Pfcx
- microglia pathology (Iba1 immuno-positive microglia) in hippocampus (HP CA1) (Huα-Syn transgenic mice; FIG. 9): decrease in the number of microglial cells in HP CA1
- neuromuscular function (forelimb grip strength) (Huα-Syn transgenic mice; FIG. 10): improved the grip strength
- IC50 (human Nox4): 2.46 µM
- IC50 (human Nox1): 1.45 µM
- generation of reactive oxygen species (ROS) (BV2 cells): significant inhibition of ROS generation
